Source: patent US7435740B2 (King Pharmaceuticals Research and Development, Inc., priority 2005, dated 2008)

Key:
[1] = target: T1, human recombinant A2B adenosine receptor (Homo sapiens, UniProt P29275); test: cAMP assay in CHO hA2B; type: cell-based; conditions: percentage given after the > bound; meaning not defined in the patent
T1 sequence (P29275 1-332): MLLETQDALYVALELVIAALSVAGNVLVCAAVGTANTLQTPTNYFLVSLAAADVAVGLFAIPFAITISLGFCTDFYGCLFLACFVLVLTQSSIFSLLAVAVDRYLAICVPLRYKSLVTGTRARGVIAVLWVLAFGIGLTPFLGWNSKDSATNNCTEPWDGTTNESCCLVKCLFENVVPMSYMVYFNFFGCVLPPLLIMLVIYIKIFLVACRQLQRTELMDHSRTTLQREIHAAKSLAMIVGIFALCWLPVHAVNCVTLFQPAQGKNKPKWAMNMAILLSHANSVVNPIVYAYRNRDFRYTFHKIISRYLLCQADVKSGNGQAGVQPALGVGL

[2] = target: human recombinant A2A adenosine receptors (Homo sapiens, UniProt P29274); test: Radioligand binding to hA2A receptors expressed in CHO cells; conditions: percentage given after the > bound; meaning not defined in the patent
Sequence of human recombinant A2A adenosine receptors (P29274 whole entry): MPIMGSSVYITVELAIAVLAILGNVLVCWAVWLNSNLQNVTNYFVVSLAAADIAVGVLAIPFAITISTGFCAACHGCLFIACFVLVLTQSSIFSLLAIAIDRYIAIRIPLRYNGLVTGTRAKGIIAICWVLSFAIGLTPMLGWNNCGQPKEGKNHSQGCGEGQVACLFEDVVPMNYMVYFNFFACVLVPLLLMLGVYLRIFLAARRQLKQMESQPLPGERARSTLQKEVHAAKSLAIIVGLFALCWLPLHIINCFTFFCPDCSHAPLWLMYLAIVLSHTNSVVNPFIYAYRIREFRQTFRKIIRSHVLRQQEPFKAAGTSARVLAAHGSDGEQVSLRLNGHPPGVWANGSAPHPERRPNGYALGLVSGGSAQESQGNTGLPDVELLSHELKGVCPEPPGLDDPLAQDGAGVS
Method: (§1) For membrane preparation the culture medium was removed and the cells were washed with PBS and scraped off T75 flasks in ice-cold hypotonic buffer (5 mM Tris HCl, 2 mM EDTA, pH 7.4).
(§2) The cell suspension was homogenized with Polytron and the homogenate was spun for 10 min at 1,000×g. The supernatant was then centrifuged for 30 min at 100,000×g. […] Then the suspension was frozen at −80° C.
(§3) Ki=IC50/(1+[C*]/KD*), where [C*] is the concentration of the radioligand and KD* its dissociation constant.

[3] = target: T2, human recombinant A1 adenosine receptor (Homo sapiens, UniProt P30542); test: [3H]-DPCPX binding to human A1 adenosine receptor expressed in CHO cells; conditions: percentage given after the > bound; meaning not defined in the patent
T2 sequence (P30542 1-326): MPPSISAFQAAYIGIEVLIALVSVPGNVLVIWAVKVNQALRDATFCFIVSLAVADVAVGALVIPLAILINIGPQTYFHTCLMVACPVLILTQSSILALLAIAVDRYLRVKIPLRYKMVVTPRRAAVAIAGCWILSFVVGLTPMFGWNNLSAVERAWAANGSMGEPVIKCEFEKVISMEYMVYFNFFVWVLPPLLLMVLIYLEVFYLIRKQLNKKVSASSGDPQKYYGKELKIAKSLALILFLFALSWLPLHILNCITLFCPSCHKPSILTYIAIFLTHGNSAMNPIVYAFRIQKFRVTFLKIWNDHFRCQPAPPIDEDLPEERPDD
Method: as §1, §2, §3

[4] = target: T3, human recombinant A3 adenosine receptors (Homo sapiens, UniProt P0DMS8); test: [3H]-MRE 3008F20 binding to hA3 receptors expressed in CHO cells; conditions: CHO cell membranes, 1 nM [3H]-MRE 3008F20; geometric mean, confidence limits in the line below; read-out: [3H] MRE3008F20 binding to hA3 receptors expressed in CHO cells Ki
T3 construct: expressed in transfected cells; host or cells: CHO cells (membranes)
T3 sequence (P0DMS8 1-318): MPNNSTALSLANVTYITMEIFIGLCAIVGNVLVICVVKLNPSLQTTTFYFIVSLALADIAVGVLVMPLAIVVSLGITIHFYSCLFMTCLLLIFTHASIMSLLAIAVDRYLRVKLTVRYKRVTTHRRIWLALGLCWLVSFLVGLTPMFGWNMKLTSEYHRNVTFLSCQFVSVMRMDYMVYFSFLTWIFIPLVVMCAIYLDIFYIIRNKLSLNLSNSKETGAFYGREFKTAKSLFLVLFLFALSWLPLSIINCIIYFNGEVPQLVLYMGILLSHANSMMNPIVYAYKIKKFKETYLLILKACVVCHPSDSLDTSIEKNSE
Method: as §1, §2
Non-specific binding was defined as binding in the presence of 1 μM MRE 3008F20 and was about 30% of total binding.
as §3

Row | Structure (SMILES) | cAMP assay in CHO hA22B, percentage in parentheses [1] | [3H] ZM 241385 binding to hA2A receptors, percentage in parentheses [2] | [3H] DPCPX binding to hA1, percentage in parentheses [3] | melting point | Ki [4]
1 | CCCn1c(=O)c2c(nc3[nH]c(C(C)(C)C)cn32)n(Cc2ccccc2)c1=O [Compound 22, 1-Benzyl-7-tert-butyl-3-propyl-1H-imidazo[1,2-f]purine-2,4(3H,8H)-dione] | 86% | 99% | 51% | 230 °C | 99 nM
2 | CCCn1c(=O)c2c(nc3[nH]c(CC)cn32)n(Cc2ccccc2)c1=O [Compound 20, 1-Benzyl-7-ethyl-3-propyl-1H-imidazo[1,2-f]purine-2,4(3H,8H)-dione] | 97% | 99% | 65% | 285 °C | 15 nM
